Data as given in the supplement of paper PMC10307832.

How the values were obtained:
Assay in all cases: relative viability (nuclei count vs DMSO), 5 days (fraction); higher = more cells survive
[1] = compound: COc1cc(N2CCC(N3CCN(C)CC3)CC2)ccc1Nc1ncc(Cl)c(Nc2ccccc2S(=O)(=O)C(C)C)n1 [NVP-TAE684] + O=C(CCCCCCC(=O)Nc1ccccc1)NO [Vorinostat] (partner 1 µM)
Summary of the method: (§1)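 Values are medians from duplicate plates. Each reflects relative viability, defined as the nuclei count of treated wells over that of vehicle wells. Lung cancer cell lines in 1536-well plates were pin-tool dosed one day after seeding with one drug alone or with a fixed anchor-drug dose plus five library-drug doses (not always all listed) in √10 steps, then fixed, stained and imaged at 4× after 5 days.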

[2] = compound: COc1cc(N2CCC(N3CCN(C)CC3)CC2)ccc1Nc1ncc(Cl)c(Nc2ccccc2S(=O)(=O)C(C)C)n1 [NVP-TAE684] + Nc1nc2[nH]cc(CCc3ccc(C(=O)N[C@@H](CCC(=O)O)C(=O)O)cc3)c2c(=O)[nH]1 [Pemetrexed] (partner 0.2 µM)
Summary of the method: as §1

[3] = compound: C#Cc1cccc(Nc2ncnc3cc(OC)c(OCCCCCCC(=O)NO)cc23)c1 [CUDC-101] + C[C@@H](Oc1cc(-c2cnn(C3CCNCC3)c2)cnc1N)c1c(Cl)ccc(F)c1Cl [Crizotinib] (partner 1 µM)
Summary of the method: as §1

[4] = compound: C#Cc1cccc(Nc2ncnc3cc(OC)c(OCCCCCCC(=O)NO)cc23)c1 [CUDC-101] + O=C(c1cc(Cc2n[nH]c(=O)c3ccccc23)ccc1F)N1CCN(C(=O)C2CC2)CC1 [Olaparib] (partner 8 µM)
Summary of the method: as §1

| Cell Line | relative viability ([1]; first compound 0.2 µM) | relative viability ([1]; first compound 0.6325 µM) | relative viability ([1]; first compound 2 µM) | relative viability ([2]; first compound 0.2 µM) | relative viability ([2]; first compound 0.6325 µM) | relative viability ([2]; first compound 2 µM) | relative viability ([3]; first compound 0.01 µM) | relative viability ([3]; first compound 0.03162 µM) | relative viability ([3]; first compound 0.1 µM) | relative viability ([3]; first compound 0.3162 µM) | relative viability ([3]; first compound 1 µM) | relative viability ([4]; first compound 0.01 µM) | relative viability ([4]; first compound 0.03162 µM) | relative viability ([4]; first compound 0.1 µM) | relative viability ([4]; first compound 0.3162 µM) | relative viability ([4]; first compound 1 µM) |
| --- | --- | --- | --- | --- | --- | --- | --- | --- | --- | --- | --- | --- | --- | --- | --- | --- |
| HOP-62 | 0.566 | 0.57 | 0.553 | 0.34 | 0.392 | 0.345 | 0.95 | 0.753 | 1.03 | 0.925 | 0.666 | 0.31 | 0.465 | 0.359 | 0.29 | 0.477 |
| IA-LM | 0.66 | 0.897 | 0.7 |  |  |  | 0.944 | 0.91 | 0.868 | 0.587 | 0.466 | 0.768 | 0.871 | 0.74 | 0.86 | 0.46 |
| LC-2-ad | 0.725 | 0.665 | 0.251 | 0.241 | 0.269 | 0.232 | 0.454 | 0.482 | 0.432 | 0.436 | 0.343 | 0.719 | 0.69 | 0.698 | 0.699 | 0.608 |
| LCLC-97TM1 | 0.548 | 0.589 | 0.157 | 0.184 | 0.144 | 0.114 | 0.549 | 0.386 | 0.443 | 0.343 | 0.17 | 0.452 | 0.4 | 0.368 | 0.446 | 0.437 |
| LCLC-103H | 0.725 | 0.759 | 0.653 | 0.473 | 0.48 | 0.478 | 0.891 | 0.916 | 1.08 | 1.08 | 0.957 | 0.79 | 0.722 | 0.731 | 0.719 | 0.627 |
| LK-2 | 0.271 | 0.219 | 0.215 | 0.271 | 0.229 | 0.175 | 0.249 | 0.229 | 0.21 | 0.246 | 0.225 | 0.821 | 0.754 | 0.597 | 0.495 | 0.281 |
| LOU-NH91 | 0.817 | 0.8 | 0.628 | 0.364 | 0.349 | 0.437 | 0.701 | 0.605 | 0.699 | 0.521 | 0.539 | 0.906 | 0.779 | 0.76 | 0.754 | 0.624 |
| LU99A | 0.51 | 0.465 | 0.357 | 0.192 | 0.147 | 0.194 | 0.516 | 0.585 | 0.458 | 0.45 | 0.256 | 0.259 | 0.24 | 0.233 | 0.192 | 0.105 |
| LXF-289 | 0.671 | 0.676 | 0.723 | 0.874 | 0.983 | 0.805 | 0.804 | 0.835 | 0.828 | 0.736 | 0.577 | 1.01 | 1.14 | 1.06 | 1.08 | 0.599 |
| NCI-H23 | 0.844 | 0.463 | 0.362 | 0.719 | 0.556 | 0.395 | 0.68 | 0.442 | 0.639 | 0.547 | 0.495 | 0.271 | 0.373 | 0.323 | 0.302 | 0.248 |
| NCI-H322M | 0.858 | 0.811 | 0.565 | 0.635 | 0.593 | 0.479 | 0.958 | 0.903 | 0.774 | 0.748 | 0.538 | 0.789 | 0.674 | 0.771 | 0.692 | 0.594 |
| NCI-H358 | 0.697 | 0.608 | 0.0861 | 0.166 | 0.151 | 0.13 | 0.558 | 0.581 | 0.435 | 0.497 | 0.236 | 0.641 | 0.625 | 0.66 | 0.543 | 0.408 |
| NCI-H441 | 0.972 | 0.688 | 0.56 | 0.271 | 0.29 | 0.223 | 0.833 | 0.739 | 0.87 | 0.843 | 0.514 | 0.628 | 0.556 | 0.679 | 0.572 | 0.479 |
| NCI-H522 | 0.78 | 0.855 | 0.764 | 1.13 | 1.07 | 0.799 |  |  |  |  |  | 0.674 | 0.624 | 0.7 | 0.693 | 0.529 |
| NCI-H727 | 1.09 | 1.25 | 0.869 |  |  |  | 0.913 | 0.931 | 0.738 | 0.647 | 0.361 | 0.797 | 0.623 | 0.708 | 0.699 | 0.461 |
| NCI-H1299 |  |  |  |  |  |  | 0.926 | 0.957 | 0.998 | 0.837 | 0.934 | 0.964 | 0.953 | 1 | 0.98 | 0.883 |
| NCI-H1395 | 0.71 | 0.554 | 0.711 | 0.971 | 0.831 | 0.823 |  |  |  |  |  | 0.472 | 0.558 | 0.447 | 0.435 | 0.405 |
| NCI-H1563 |  |  |  | 0.757 | 0.692 | 0.654 | 0.721 | 0.874 | 0.891 | 0.791 | 0.68 |  |  |  |  |  |
| NCI-H1648 | 0.27 | 0.541 | 0.181 |  |  | 0.415 |  |  |  |  |  | 1.19 | 0.762 | 0.665 | 0.748 | 0.294 |
| NCI-H1703 |  |  |  |  |  |  | 1.07 | 0.707 | 0.765 | 0.712 | 0.477 |  | 0.389 | 0.489 | 0.662 | 0.428 |
| NCI-H1792 |  |  |  | 0.773 | 0.799 | 0.799 | 0.971 | 0.944 | 0.942 | 1.04 | 0.953 | 0.495 | 0.379 | 0.381 | 0.407 | 0.278 |
| NCI-H1793 | 1.14 | 0.575 | 0.878 | 0.929 | 0.651 | 0.779 |  |  |  |  |  | 0.857 | 0.753 | 0.888 | 0.944 | 0.549 |
| NCI-H2342 | 0.848 | 0.776 | 0.678 | 0.93 | 0.771 | 0.493 |  |  |  |  |  | 0.425 | 0.487 | 0.44 | 0.513 | 0.432 |
| SW 900 | 0.686 | 0.46 | 0.687 | 0.548 | 0.443 | 0.449 |  |  |  |  |  | 0.887 | 0.811 | 0.841 | 0.686 | 0.628 |
